Experimental data: patent US20060052409A1, “Therapeutic or preventive agent for nausea/vomiting” (priority 2002, published 2006)

Columns and labels:
[1] = system: morphine-induced nausea and vomiting; assay: Morphine-induced nausea and vomiting in beagles; assay type: in vivo; conditions: male beagles; for Anti-emetic effect of test compounds: dose at which the test compounds inhibited nausea and vomiting due to morphine: test compound i.v. 15 minutes before morphine 0.5 mg/kg i.v., observed for ten minutes
Protocol: Male beagles were used for the experiment. Frequencies of nausea and vomiting were visually observed for ten minutes after the administration of morphine.
Morphine (0.5 mg/kg) was intravenously administered into the foreleg of male beagles. […] The test compounds were intravenously administered into the foreleg 15 minutes before the administration of morphine.

[2] = system: nausea and vomiting due to morphine; conditions: literature report; cited from earlier work
[3] = system: morphine-induced nausea and vomiting; assay: Morphine-induced nausea and vomiting in ferrets; assay type: in vivo; conditions: male ferrets; morphine 0.1-3 mg/kg s.c.; observed for one hour
Protocol: Male ferrets were used for the experiment. Frequencies of nausea and vomiting were visually observed from immediately after the administration of morphine to one hour after the administration.
Morphine (0.1-3 mg/kg) was subcutaneously administered to male ferrets. […] The inhibitory effects of NTI on nausea and vomiting due to morphine were then studied. NTI (5 mg/kg) was subcutaneously administered 30 minutes before the administration of morphine (0.6 mg/kg).

Structure (SMILES) | Anti-emetic effect of test compounds: dose at which the test compounds inhibited nausea and vomiting due to morphine [1] [mg/kg] | also measured
C[S+]([O-])c1cccc2c3c([nH]c12)[C@@H]1Oc2c(O)ccc4c2C12CCN(CC1CC1)[C@H](C4)[C@]2(O)C3 (stereo partly drawn) [Compound 2, 17-(cyclopropylmethyl)-6,7-didehydro-4,5α-epoxy-3,14β-dihydroxy-7′-methylsulfinyl-6,7-2′,3′-indolomorphinan] | 1.0 | 
Oc1ccc2c3c1O[C@H]1c4c(c5cc(F)cc6c5n4CCC6)C[C@@]4(O)[C@@H](C2)N(CC2CC2)CCC314 [Compound 3, 17-(cyclopropylmethyl)-6,7-didehydro-4,5α-epoxy-3,14β-dihydroxy-1′,7′-trimethylene-5′-fluoro-6,7-2′,3′-indolomorphinan] | 1.0 | 
Cn1c2c(c3ccc4c(c31)CCCC4)C[C@@]1(O)[C@H]3Cc4ccc(O)c5c4C1(CCN3CC1CC1)[C@H]2O5 [Compound 4, 17-(cyclopropylmethyl)-6,7-didehydro-4,5α-epoxy-3,14β-dihydroxy-6′,7′-cyclohexeno-1′-methyl-6,7-2′,3′-indolomorphinan] | 3.0 | 
Oc1ccc2c3c1O[C@H]1c4nc5ccccc5cc4C[C@@]4(O)[C@@H](C2)N(CC2CC2)CCC314 [Compound 5, 17-(cyclopropylmethyl)-6,7-didehydro-4,5α-epoxy-3,14β-dihydroxy-6,7-2′,3′-quinolinomorphinan] | 1.0 | 
Cc1c2c(nc3ccccc13)[C@@H]1Oc3c(O)ccc4c3C13CCN(CC1CC1)[C@H](C4)[C@]3(O)C2 [Compound 6, 17-(cyclopropylmethyl)-6,7-didehydro-4,5α-epoxy-3,14β-dihydroxy-6,7-2′,3′-(4′-methylquinolino)morphinan] | 3.0 | 
O=C1/C(=C/c2ccccc2)C[C@@]2(O)[C@H]3Cc4ccc(O)c5c4[C@@]2(CCN3CC2CC2)[C@H]1O5 [Compound 7, 7-benzylidene-17-(cyclopropylmethyl)-4,5α-epoxy-3,14β-dihydroxy-6-oxomorphinan] | 1.0 | 
C=CCN(CC=C)[C@@H](Cc1ccc(O)cc1)C(=O)NCC(=O)NCCS[C@@H](Cc1ccccc1)C(=O)N[C@@H](CC(C)C)C(=O)O [ICI-154129] |  | Anti-emetic effect against nausea and vomiting due to morphine [2]: cannot inhibit vomiting due to morphine
CN1CC[C@]23c4c5ccc(O)c4O[C@H]2[C@@H](O)C=C[C@H]3[C@H]1C5 [Morphine, morphine, reference compound] |  | Induction of nausea and vomiting [3]: remarkably induced at lower doses; Induction of nausea and vomiting ([1]; morphine 0.5 mg/kg i.v.): remarkably induced within 5 minutes
C=CCN1CC[C@]23c4c5ccc(O)c4O[C@H]2C(=O)CC[C@@]3(O)[C@H]1C5 [naloxone] |  | Anti-emetic effect against nausea and vomiting due to morphine [2]: shows anti-emetic effects
